Experimental data from patent US20250034211A1, “C-TERMINAL EXTENDED P53 ACTIVATOR CROSSLINKED PEPTIDOMIMETIC MACROCYCLES AGAINST MDM2/MDMX” (Merck Sharp & Dohme LLC, priority 2021, published 2025).
≈ marks a conversion by molar mass, not a printed value. Where a SMILES comes first, the peptide text is derived from it. Bridges are numbered along the chain shown (N, C = ends). [ ]: non-standard residue; d: D form. Lys(N3) = [N-]=[N+]=NCCCC[C@H](N)C(=O)O; R8 = C=CCCCCCC[C@@](C)(N)C(=O)O; Cba = N[C@@H](CC1CCC1)C(=O)O; S5 = C=CCCC[C@](C)(N)C(=O)O; βAla = NCCC(=O)O

How the values were obtained:
[1] = Circular dichroism (CD) helicity; assay type: physicochemical
Method: The dried peptide was reconstituted in a buffer containing 1 mM HEPES pH 7.4 and 5% methanol to a concentration of 1 mM. The peptide sample was placed in a quartz cuvette with a path length of 0.2 cm and a CD spectrum was recorded from 300 to 190 nm at 25° C. using the Chirascan-plus qCD machine (Applied Photophysics). The actual concentration of the peptide was determined by the absorbance of the peptide at […]. An estimate of the secondary structure components of the peptide was carried out by converting the CD spectrum to mean residue ellipticity before deconvoluting using the CDNN software (distributed by Applied Photophysics). All experiments were done in duplicate.

[2] = molecular target: T1, MDM2 (1-125; SEQ ID NO 14) (Homo sapiens, UniProt Q00987); experiment: MDM2 binding assay (fluorescence anisotropy competition, FP)
T1 construct: GST (N); His6 (internal); TEV cleavage site ENLYFQG (internal); made in house; host or cells: E. coli BL21 (DE3) Rosetta T1R
T1 sequence (Q00987 with tags, fused parts or gaps): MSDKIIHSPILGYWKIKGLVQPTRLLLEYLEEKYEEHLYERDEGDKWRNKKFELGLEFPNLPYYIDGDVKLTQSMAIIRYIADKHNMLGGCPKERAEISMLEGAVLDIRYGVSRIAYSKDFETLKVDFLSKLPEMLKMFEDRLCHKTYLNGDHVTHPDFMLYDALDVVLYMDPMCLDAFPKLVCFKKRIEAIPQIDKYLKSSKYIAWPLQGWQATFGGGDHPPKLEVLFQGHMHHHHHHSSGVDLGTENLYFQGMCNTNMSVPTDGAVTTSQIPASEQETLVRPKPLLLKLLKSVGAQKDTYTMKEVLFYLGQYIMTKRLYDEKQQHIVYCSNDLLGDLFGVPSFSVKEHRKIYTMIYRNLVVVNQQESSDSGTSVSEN
Method: [P] is the protein concentration (MDM2), [L] is the labeled peptide concentration, r is the anisotropy measured, r0 is the anisotropy of the free peptide, rb is the anisotropy of the MDM2-FAM-labeled peptide complex, Kd is the dissociation constant, [L]t is the total FAM labeled peptide concentration, and [P]t is the total MDM2 concentration. […] The competing molecules were then titrated against the complex of the FAM-labeled peptide and protein. Apparent Kd values were determined by fitting the experimental data to the equations shown below:
[L]st and [L]t denote labeled ligand and total unlabeled ligand input concentrations, respectively. Kd2 is the dissociation constant of the interaction between the unlabeled ligand and the protein. In all competition experiments, it is assumed that [P]t>[L]st, otherwise considerable amounts of free labeled ligand would always be present and would interfere with measurements. […] The FAM-labeled peptide was dissolved in dimethyl sulfoxide (DMSO) at 1 mM and diluted into experimental buffer. Readings were carried out with an Envision Multilabel Reader (PerkinElmer). […] All titrations were carried out in triplicate. Curve-fitting was carried out using Prism 4.0 (GraphPad). […] Negative control titrations of the ligands under investigation were also carried out with the fluorescently labeled peptide (in the absence of MDM2) to ensure no interactions were occurring between the ligands and the FAM-labeled peptide.

p53 null Ca Ski = settings: 72 h, 10% serum
HCT116 cells = experiment: Lactate dehydrogenase release assay (LDH); assay type: cell-based
Method: HCT116 cells were seeded into a 384-well plate at a density of 8000 cells per well. Cells were maintained in McCoy's 5A Medium with 10% fetal bovine serum (FBS), Blasticidin and Penicillin/Streptomycin. The cells were incubated overnight followed by the removal of cell media and the addition of Opti-MEM Medium without FBS. Cells were then treated with peptides for 4/16 hours in Opti-MEM either in 10% FBS or serum free. Final concentration of DMSO was 0.5%. Lactate dehydrogenase release was detected using CytoTox-ONE Homogenous Membrane Integrity Assay Kit (Promega) as per manufacturer's instructions. Measurements were carried out using Tecan plate reader. Maximum LDH release was defined as the amount of LDH released induced by the lytic peptide (iDNA79) and used to normalize the results.

Solubility (PBS, pH 7) = settings: PBS, pH 7
[3] = system: Jump-In T-REx CHO-K1 BLA cells; experiment: Tetracycline beta-lactamase reporter gene assay (counter screen); assay type: cell-based
Method: Based on Jump-In™ T-REx™ CHO-K1 BLA cells and contain a stably integrated β-lactamase under the control of an inducible CMV promoter. Cells were seeded into a 384-well plate a density of 4000 cells per well. Cells were maintained in Dulbecco's Minimal Eagle Medium (DMEM) with 10% fetal bovine serum (FBS), Blasticidin and Penicillin/Streptomycin. The cells were incubated for 24 hours, followed by cell media removal and replacement with Opti-MEM either containing 10% FBS or 0% FBS. Peptides were then dispensed to each well using a liquid handler, ECHO 555 and incubated for 4/16 hours. Final working concentration of DMSO was 0.5%. β-Lactamase activity was detected using the ToxBLAzer Dual Screen (Invitrogen) as per manufacturer's instructions. Measurements were carried out using Envision multiplate reader (Perkin Elmer). Counter Screen activity was defined as the amount of 0-lactamase activity induced by tetracycline.

CC(=O)N[C@@H](CCCCN=[N+]=[N-])C(=O)NCCC(=O)N[C@@H](CC(C)C)C(=O)N[C@H](C(=O)N[C@@H](Cc1ccccc1)C(=O)N[C@]1(C)CCCCCCC=CCCC[C@@](C)(C(=O)N[C@@H](C)C(=O)N[C@@H](C)C(=O)N[C@@H](C)C(=O)N[C@@H](C)C(=O)N[C@@H](C)C(=O)N[C@H](C)C(N)=O)NC(=O)[C@H](CC2CCC2)NC(=O)[C@H](CCC(N)=O)NC(=O)[C@H](C)NC(=O)[C@H](Cc2c[nH]c3ccccc23)NC(=O)[C@H](Cc2ccc(O)cc2)NC(=O)[C@H](CCC(=O)O)NC1=O)[C@@H](C)O [Macrocycle 3, Ac-K(N3)-betaAla-L-T-F-X1a-E-Y-W-A-Q-Cba-X2a-AAAAA-(D-Ala)-NH2(olefinstaple from X1ato X2a)] (Ac-[Lys(N3)][βAla]LTF[R8]EYWAQ[Cba][S5]AAAAA[dA]-NH2; staple 6-13)
CD (% helicity) [1]: 47%
Kd [2]: 0.031 µM
p53 null Ca Ski proliferation % Max (p53 null Ca Ski): 10%
logD (HPLC LogD): 3.15
EC50 (HCT116 cells; 0% FBS, 4 h): > 50 µM
EC50 (HCT116 cells; 10% FBS, 16 h): > 50 µM
HCT116 proliferation % Max (HCT116; 72 h, 10% serum): 71%
EC50 (HCT116; read-out: cellular efficacy in cell proliferation HTC116 p53 positive control cell lines): 0.42 µM
solubility (Solubility (PBS, pH 7)): 157 µM (≈ 340 µg/mL)
EC50 ([3]; 0% FBS, 4 h): > 50 µM
EC50 ([3]; 10% FBS, 16 h): > 50 µM
